Broadly, the Ki is the dissociation constant of the complex between target and ligand, obtained from inhibition or displacement. High values mean weaker binding, low ones tighter binding.

One test deals with T1, GABAA receptors (α5β2γ2) (Homo sapiens, UniProt P18507+P31644).
T1 construct: expressed in transfected cells
The experiment in a line: Positive allosteric modulator activity: potentiation of EC20 GABA current in oocytes. Format: cell-based. To be noted: read-out: GABA α5 functional potentiation. Here is the method:
On day 1, 1 ng/32 nL of GABAA α5β2γ2 cDNA was injected into one oocyte. Test starts on day 2. The cDNA injected to the oocytes was a mix of alpha, beta and gamma, their ratio is 1:1:10 (by weight) and the total weight of the mixed 3 subunits to be injected in one oocyte was 1 ng in 32 nl volume. The injected oocytes can also be tested on day 3. In such case, the cDNA amount injected to the oocytes should be reduced by 20%.
1). 8 oocytes were placed in 8 chambers of OpusXpress and superfused with Modified Barth's Saline (MBS) at 3 mL/min. Glass electrodes back-filled with 3M KCl (0.5-3 megaohms) were used.
1). Repeat the above steps 1), 2) and 3) in the control test.
2). […] Divide Itest by IGABA to obtain potentiation (%).
3). Discard all tested oocytes, new oocytes were used and the above steps 1) and 2) were repeated to test second concentration of the same compound. Each oocyte was used for only one concentration test for a single test compound. The steps were repeated for other test compounds.

For test [1], the target named is T2, α5β3γ2 GABAA receptors (Ltk cells) (Homo sapiens, UniProt P18507+P31644).
T2 construct: membranes
T2 sequence (P31644 32-462): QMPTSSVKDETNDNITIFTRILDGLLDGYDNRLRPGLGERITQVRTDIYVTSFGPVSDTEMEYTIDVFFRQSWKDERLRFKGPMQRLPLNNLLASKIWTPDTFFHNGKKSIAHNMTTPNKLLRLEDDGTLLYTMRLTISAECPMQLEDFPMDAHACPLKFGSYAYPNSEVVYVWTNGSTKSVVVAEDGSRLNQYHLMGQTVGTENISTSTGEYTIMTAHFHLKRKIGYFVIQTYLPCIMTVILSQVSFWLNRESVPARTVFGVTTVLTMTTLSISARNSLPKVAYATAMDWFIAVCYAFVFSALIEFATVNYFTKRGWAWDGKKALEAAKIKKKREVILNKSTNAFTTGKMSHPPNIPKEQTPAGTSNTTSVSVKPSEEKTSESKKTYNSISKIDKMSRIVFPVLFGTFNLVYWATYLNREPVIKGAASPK
T2 sequence (P28472 26-473 partner): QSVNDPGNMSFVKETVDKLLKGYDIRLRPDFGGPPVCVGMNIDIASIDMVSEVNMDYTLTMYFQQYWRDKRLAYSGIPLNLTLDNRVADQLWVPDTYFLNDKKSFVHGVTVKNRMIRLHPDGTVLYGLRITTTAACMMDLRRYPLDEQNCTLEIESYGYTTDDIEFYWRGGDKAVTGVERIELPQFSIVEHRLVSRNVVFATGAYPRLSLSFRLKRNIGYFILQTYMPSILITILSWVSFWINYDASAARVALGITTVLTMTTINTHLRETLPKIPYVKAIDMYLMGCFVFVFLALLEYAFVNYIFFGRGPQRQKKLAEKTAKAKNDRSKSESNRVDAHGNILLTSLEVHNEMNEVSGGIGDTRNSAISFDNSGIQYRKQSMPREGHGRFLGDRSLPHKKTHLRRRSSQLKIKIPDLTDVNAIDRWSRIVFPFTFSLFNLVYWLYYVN
T2 sequence (P18507 40-475): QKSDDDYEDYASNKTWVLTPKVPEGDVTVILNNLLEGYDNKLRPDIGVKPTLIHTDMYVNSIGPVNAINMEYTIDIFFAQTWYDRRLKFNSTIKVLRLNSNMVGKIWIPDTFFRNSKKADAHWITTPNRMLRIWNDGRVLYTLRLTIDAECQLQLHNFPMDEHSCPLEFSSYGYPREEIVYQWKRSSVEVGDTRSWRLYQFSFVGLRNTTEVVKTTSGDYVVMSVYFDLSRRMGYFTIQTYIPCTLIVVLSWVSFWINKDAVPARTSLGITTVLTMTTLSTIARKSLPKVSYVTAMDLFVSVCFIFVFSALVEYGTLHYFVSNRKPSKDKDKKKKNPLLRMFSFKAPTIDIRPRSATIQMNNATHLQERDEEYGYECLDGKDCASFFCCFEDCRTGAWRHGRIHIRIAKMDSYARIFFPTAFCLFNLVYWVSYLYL
The experiment in a line: Binding activity on GABAAR: inhibition of [3H]Ro15-1788 binding. Here is the method: Tissue culture and Membrane Preparation: The binding was performed on Ltk cells stably expressing GABAA receptors: α1β1γ2, α2β3γ2, α3β3γ2 and α5β3γ2 (provided by Merck Co., NJ, USA). Cells were seeded in 100 mm culture plates in DMEM/F12 medium containing 10% serum and antibiotics in 5% CO2 and allowed to grow for 1-2 days. GABAAR expression was then induced by dexamethasone as follows: 0.5 μM for 1 day for α5 containing and 2 μM for 3 days for α1, α2 and α3 containing GABAARs. After induction, cells were collected by scraping into Dulbecco's Phosphate buffered saline (DPBS, pH 7.4, Invitrogen, Carlsbad, Calif., USA) and centrifuged at 150×g for 10 min. The pellet was washed twice by re-suspension and centrifugation. The cell pellets from at least 5 different preps were combined, suspended in the binding assay buffer (50 mM KH2PO4; 1 mM EDTA; 0.2 M KCl, pH 7.4) and membranes prepared by sonication (3-5 times, 30 sec) using Branson Sonifier 150 (G. Heinmann, Germany). Protein content was determined using BCA assay (Bio-Rad Labs, Reinach, Switzerland) with Bovine Serum Albumin (Sigma Aldrich, St. Louis, Mo., USA) as the standard. Aliquots were prepared and stored at −20° C. for further use in binding assays.
Ligand Binding: Saturation binding curves were obtained by incubating membranes with increasing concentrations (0.01-8 nM) of [^3H]Ro15-1788 (Flumazepil, 75-85 Ci/mmol, PerkinElmer, MA, USA), with nonspecific binding measured in the presence of 10 μM diazepam.
All binding assays were performed for 1 h at 4° C. in assay buffer. The total assay volume was 0.5 ml containing 0.2 mg/ml protein for α5 and 0.4 mg/ml for α1, α2, and α3 containing GABAAR membranes. Incubations were terminated by filtration through GF/B filters using a 24-Cell Harvestor (Brandel, Gaithersburg, Md., USA) followed by 3 washes with ice-cold assay buffer. Filters were transferred to scintillation vials, 5 ml scintillation liquid added, vortex-mixed and kept in dark. Next day, radioactivity was obtained using a scintillation counter (Beckman Coulter, Brea, Calif., USA). All assays were performed in triplicate.
Data Analyses: Saturation and inhibition curves were obtained using GraphPad Prism software (GraphPad Software, Inc., CA, USA).

T1 sequence (P31644 32-462): as the sequence (P31644 32-462) above
T1 sequence (P47870 25-512 partner limits assumed): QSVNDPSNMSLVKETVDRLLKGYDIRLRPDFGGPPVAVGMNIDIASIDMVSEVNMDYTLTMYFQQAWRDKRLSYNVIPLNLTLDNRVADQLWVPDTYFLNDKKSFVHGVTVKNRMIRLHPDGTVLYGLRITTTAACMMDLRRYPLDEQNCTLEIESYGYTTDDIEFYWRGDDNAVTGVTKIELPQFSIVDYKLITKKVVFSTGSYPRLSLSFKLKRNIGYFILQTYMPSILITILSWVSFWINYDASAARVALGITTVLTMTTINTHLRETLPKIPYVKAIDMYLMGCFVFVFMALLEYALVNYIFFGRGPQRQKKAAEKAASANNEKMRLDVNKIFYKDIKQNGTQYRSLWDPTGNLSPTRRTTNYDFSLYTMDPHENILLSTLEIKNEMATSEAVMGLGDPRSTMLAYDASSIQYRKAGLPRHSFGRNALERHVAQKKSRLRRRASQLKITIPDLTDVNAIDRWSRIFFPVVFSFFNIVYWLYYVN
T1 sequence (P18507 40-475): as the sequence (P18507 40-475) above

On to `Cc1nnn2c1Cc1c(C(=O)OCC(F)(F)F)ncn1-c1ccc(F)cc1-2` [Compound 114], for which, on GABAA receptors (α5β2γ2), the activation at 0.1 µM is over 50%.

Turning to `COc1ccc2c(c1)-c1nnc(COc3ccccc3)n1Cc1c(C(=O)OC(C)C)ncn1-2` [Compound 120], the activation at 0.1 µM at GABAA receptors (α5β2γ2) was in the range of 20 to 49%. Still for that read-out and setting: the figure for `Cc1noc(-c2ncn3c2Cc2c(C)nnn2-c2ccccc2-3)n1` [Compound 126] is 20 to 49%; for `Cc1nc(-c2ncn3c2Cc2c(C)nnn2-c2ccccc2-3)no1` [Compound 127] it is 20 to 49%; for `COCc1nnc2n1Cc1c(-c3nc(C)no3)ncn1-c1ccc(OC)cc1-2` [Compound 128] it is 20 to 49%.

For the compound `COCc1nnc2n1Cc1c(-c3nc(C(C)C)no3)ncn1-c1ccc(OC)cc1-2` [Compound 130], on GABAA receptors (α5β2γ2), the activation at 0.1 µM fell in the range of 20 to 49%. Consider `Cc1nnn2c1Cc1c(-c3nc(C(C)C)no3)ncn1-c1ccccc1-2` [Compound 132], for which the activation at 0.1 µM on GABAA receptors (α5β2γ2) lay in the range of 20 to 49%. Regarding `CCOC(=O)c1ncn2c1Cn1c(COc3ccccc3)nnc1-c1cc(F)ccc1-2` [Compound 137], the activation at 0.1 µM at GABAA receptors (α5β2γ2) lay within 20 to 49%. Take `Cc1nc(-c2ncn3c2Cc2c(C)nnn2-c2cc(F)ccc2-3)no1` [Compound 145]: on GABAA receptors (α5β2γ2), the activation at 0.1 µM was over 50%.

For the compound `CC(C)c1nc(-c2ncn3c2Cn2c(COc4ccccc4)nnc2-c2cc(F)ccc2-3)no1` [Compound 147], the activation at 0.1 µM on GABAA receptors (α5β2γ2) fell in the range of 20 to 49%. Consider `Cc1nc(-c2ncn3c2Cn2c(COc4ccccc4)nnc2-c2cc(F)ccc2-3)no1` [Compound 148], for which, on GABAA receptors (α5β2γ2), the activation at 0.1 µM was 20 to 49%. Regarding `Cc1nnn2c1Cc1c(-c3noc(C(C)C)n3)ncn1-c1ccc(F)cc1-2` [Compound 149], the activation at 0.1 µM on GABAA receptors (α5β2γ2) was over 50%. As to `Cc1nnn2c1Cc1c(C(=O)OC(C)C)ncn1-c1ccccc1-2` [Compound 153], the activation at 0.1 µM at GABAA receptors (α5β2γ2) was in the range of 20 to 49%. On to `CCc1nc(-c2ncn3c2Cc2c(C)nnn2-c2cc(F)ccc2-3)no1` [Compound 155], for which the activation at 0.1 µM at GABAA receptors (α5β2γ2) was 20 to 49%. Same read-out and setting: the figure for `CCc1nc(-c2ncn3c2Cn2c(COc4ccccc4)nnc2-c2cc(F)ccc2-3)no1` [Compound 158] is 20 to 49%; for `Cc1nnn2c1Cc1c(-c3noc(C(C)(C)C)n3)ncn1-c1ccc(F)cc1-2` [Compound 160] it is over 50%. As to `COc1ccc2c(c1)-c1nnc(COc3ccccc3)n1Cc1c(-c3noc(C)n3)ncn1-2` [Compound 162], on GABAA receptors (α5β2γ2), the activation at 0.1 µM was in the range of 20 to 49%. As to `COc1ccc2c(c1)-c1nnc(COc3ccc(F)cc3)n1Cc1c(-c3noc(C)n3)ncn1-2` [Compound 163], the activation at 0.1 µM on GABAA receptors (α5β2γ2) was in the range of 20 to 49%. `COc1ccc2c(c1)-c1nnc(COc3ccccc3)n1Cc1c(-c3noc(C(C)C)n3)ncn1-2` [Compound 171]: the activation at 0.1 µM on GABAA receptors (α5β2γ2) is over 50%. Same read-out and setting: for `COc1ccc2c(c1)-c1nnc(COc3ccc(F)cc3)n1Cc1c(-c3noc(C(C)C)n3)ncn1-2` [Compound 172] the value was over 50%.

Consider `CCOCc1nnc2n1Cc1c(-c3noc(C(C)C)n3)ncn1-c1ccc(OC)cc1-2` [Compound 173], for which the activation at 0.1 µM on GABAA receptors (α5β2γ2) was over 50%. Turning to `COc1ccc2c(c1)-c1nnc(COc3ccccc3F)n1Cc1c(-c3noc(C(C)C)n3)ncn1-2` [Compound 174], on GABAA receptors (α5β2γ2), the activation at 0.1 µM is over 50%. As to `COc1ccc2c(c1)-c1nnc(COc3ccccc3Cl)n1Cc1c(-c3noc(C(C)C)n3)ncn1-2` [Compound 175], on GABAA receptors (α5β2γ2), the activation at 0.1 µM is 20 to 49%.

`COc1ccc2c(c1)-c1nnc(COc3cccnc3)n1Cc1c(-c3noc(C(C)C)n3)ncn1-2` [Compound 176]: the activation at 0.1 µM on GABAA receptors (α5β2γ2) was over 50%. As to `COc1ccc2c(c1)-c1nnc(COc3cccc4ccccc34)n1Cc1c(-c3noc(C(C)C)n3)ncn1-2` [Compound 177], on GABAA receptors (α5β2γ2), the activation at 0.1 µM was over 50%. For the compound `COc1ccc2c(c1)-c1nnc(COC3CCCC3)n1Cc1c(-c3noc(C(C)C)n3)ncn1-2` [Compound 178], on GABAA receptors (α5β2γ2), the activation at 0.1 µM was over 50%. For `COc1ccc2c(c1)-c1nnc(COc3cccc(F)c3)n1Cc1c(-c3noc(C(C)C)n3)ncn1-2` [Compound 179], the activation at 0.1 µM on GABAA receptors (α5β2γ2) was over 50%. Compound `COc1ccc2c(c1)-n1nnc(COc3ccc(F)cc3)c1Cc1c(-c3noc(C)n3)ncn1-2` [Compound 180] came in with a Ki in test [1] of under 99 nM. Further, at GABAA receptors (α5β2γ2), the activation at 0.1 µM lay in the range of 20 to 49%.

For `COc1ccc2c(c1)-n1nnc(COc3ccccc3F)c1Cc1c(-c3noc(C)n3)ncn1-2` [Compound 181], the inhibition constant (Ki) in test [1] is under 99 nM. Moreover, at GABAA receptors (α5β2γ2), the activation at 0.1 µM fell in the range of 20 to 49%.

Take `COc1ccc2c(c1)-n1nnc(COc3ccccc3)c1Cc1c(-c3noc(C)n3)ncn1-2` [Compound 182]: the Ki in test [1] is under 99 nM. For the same compound, on GABAA receptors (α5β2γ2), the activation at 0.1 µM fell in the range of 20 to 49%. For `COc1ccc2c(c1)-c1nnc(COCc3cccc(F)c3)n1Cc1c(-c3noc(C(C)C)n3)ncn1-2` [Compound 183], the Ki in test [1] was under 99 nM. For the same compound, the activation at 0.1 µM at GABAA receptors (α5β2γ2) lay within 20 to 49%. Consider `COc1ccc2c(c1)-c1nnc(COCc3ccccc3F)n1Cc1c(-c3noc(C(C)C)n3)ncn1-2` [Compound 184], for which, in test [1], the Ki is under 99 nM. On GABAA receptors (α5β2γ2), the activation at 0.1 µM lay within 20 to 49%. `CC(C)c1nc(-c2ncn3c2Cn2c(COc4cccnc4)nnc2-c2cc(F)ccc2-3)no1` [Compound 185] showed a Ki in test [1] of under 99 nM. Also, the activation at 0.1 µM at GABAA receptors (α5β2γ2) was over 50%. Consider `COCc1nnc2n1Cc1c(-c3noc(C(C)C)n3)ncn1-c1ccc(F)cc1-2` [Compound 186], for which the Ki in test [1] was under 99 nM. In addition, on GABAA receptors (α5β2γ2), the activation at 0.1 µM was over 50%.

In turn, `CCOCc1nnc2n1Cc1c(-c3noc(C(C)C)n3)ncn1-c1ccc(F)cc1-2` [Compound 187] displayed a Ki in test [1] of under 99 nM. Besides, the activation at 0.1 µM on GABAA receptors (α5β2γ2) lay within 20 to 49%. In test [1], `CC(C)c1nc(-c2ncn3c2Cn2c(COc4cccc(F)c4)nnc2-c2cc(F)ccc2-3)no1` [Compound 188] returned a Ki of under 99 nM. Further, the activation at 0.1 µM at GABAA receptors (α5β2γ2) lay within 20 to 49%. `CC(C)c1nc(-c2ncn3c2Cn2c(COc4ccc(F)cc4)nnc2-c2cc(F)ccc2-3)no1` [Compound 189] had a Ki in test [1] of under 99 nM. In addition, the activation at 0.1 µM on GABAA receptors (α5β2γ2) was in the range of 20 to 49%. As to `COc1ccc2c(c1)-c1nnc(COc3ccc(F)cc3)n1Cc1c(C#N)ncn1-2` [Compound 191], at GABAA receptors (α5β2γ2), the activation at 0.1 µM was 20 to 49%.

In the case of `CCc1nc(-c2ncn3c2Cc2c(Cc4ccccc4)nnn2-c2cc(OC)ccc2-3)no1` [Compound 194], the Ki in test [1] was under 99 nM. Moreover, at GABAA receptors (α5β2γ2), the activation at 0.1 µM was over 50%.

On to `CCc1nc(-c2ncn3c2Cc2c(Cc4ccc(F)cc4)nnn2-c2cc(OC)ccc2-3)no1` [Compound 195], for which the inhibition constant Ki in test [1] was under 99 nM. Moreover, at GABAA receptors (α5β2γ2), the activation at 0.1 µM lay within 20 to 49%.

`COc1ccc2c(c1)-c1nnc(COc3cccc(F)c3)n1Cc1c(C#N)ncn1-2` [Compound 196] gave a Ki in test [1] of under 99 nM. Moreover, on GABAA receptors (α5β2γ2), the activation at 0.1 µM fell in the range of 20 to 49%. As to `COCc1nnc2n1Cc1c(-c3nc(C)no3)ncn1-c1ccc(Cl)cc1-2` [Compound 198], the Ki in test [1] is under 99 nM. The activation at 0.1 µM at GABAA receptors (α5β2γ2) was in the range of 20 to 49%. The like results for `FC(F)=Cc1ncn2c1Cn1c(COc3ccccc3)nnc1-c1cc(Cl)ccc1-2` [Compound 199] were, in that order, under 99 nM and 20 to 49%. In turn, `Clc1ccc2c(c1)-c1nnc(COc3ccccc3)n1Cc1c(Br)ncn1-2` [Compound 202] showed a Ki in test [1] of under 99 nM. Also, at GABAA receptors (α5β2γ2), the activation at 0.1 µM lay within 20 to 49%. For the compound `COc1ccc2c(c1)-n1nnc(Cc3ccccc3)c1Cc1c(Br)ncn1-2` [Compound 212], the activation at 0.1 µM at GABAA receptors (α5β2γ2) is 20 to 49%. For the compound `COc1ccc2c(c1)-n1nnc(Cc3ccc(F)cc3)c1Cc1c(Br)ncn1-2` [Compound 213], on GABAA receptors (α5β2γ2), the activation at 0.1 µM was in the range of 20 to 49%.
